{"source": "patent US6630490B2", "about": "“Methods for treatment of disease-induced peripheral neuropathy and related conditions” (NeoTherapeutics, Inc., priority 2000, dated 2003)", "key": {"[1]": {"system": "unoperated rats, mDCN-T13 heat, pinch and touch fields", "assay": "Nociceptive nerve sprouting in normally innervated skin (mDCN-T13 field mapping)", "assay_type": "in vivo, rat", "excerpt": "(§1) “Isolation” of sensory fields: This procedure, the initial step in the study of collateral sprouting and was done as described in Diamond et al. (1992). Its purpose was to isolate the cutaneous innervation territory, or field, of a selected nerve within a vast surround of denervated back skin. The nerve used was the medial branch of the left dorsal cutaneous nerve (DCN), at segmental level T13 (mDCN-T13). The isolation of its field was achieved by surgically eliminating on the left side the 4 DCNs immediately rostral and caudal to DCN-T13 (respectively T9-T12 and L1-L4), the lateral branch of DCN-T13, and the 4 lateral cutaneous nerves supplying the flank skin adjacent to the DCN-T13 territory.\n(§2) Mapping of sensory fields: As described in Nixon et al. (1984) and Doucette and Diamond (1987), the borders of the isolated mechano-nociceptive and heat-nociceptive fields, subserved respectively by the Aδ and C fibers mDCN-T13, were determined by systematically applying across the skin forceps pinches (for mechano-nociception) and brief applications of a 60° C. heat probe (for heat-nociception); the presence of nociceptive endings is indicated during these procedures when the stimuli elicit the “CTM reflex” response, a contraction of the underlying cutaneus trunci muscle, which causes a characteristic and easily recognized skin twitch (Theriault and Diamond, 1988). The low-threshold (“touch”) fields were measured electrophysiologically as described by Jackson and Diamond (1984). The DCN-T13 was placed across bipolar platinum electrodes that fed into a preamplifier and thence to an oscilloscope and audio amplifier. Brushing innervated skin with a fine bristle generates impulses in the large myelinated Aβ axons, producing audible responses that disappear abruptly as the bristle crosses into denervated territory. The areas of the cutaneous territories of the three sensory modalities studied (“pinch”, “heat” and “touch”) were measured using the MCID image analysis system (Imaging Research, Inc., St. Catharines, Ontario, Canada). […]"}, "[2]": {"system": "rats with isolated mDCN-T13 field", "assay": "Collateral sprouting of nociceptive nerves into adjacent denervated skin", "assay_type": "in vivo, rat", "excerpt": "as §1, §2"}, "[3]": {"system": "rats with isolated mDCN-T13 field receiving anti-NGF", "assay": "Sprouting blocked by anti-NGF treatment, rescue by AIT-082", "assay_type": "in vivo, rat", "excerpt": "as §1\nMapping of sensory fields: As described in Nixon et al. (1984) and Doucette and Diamond (1987), the borders of the isolated mechano-nociceptive and heat-nociceptive fields, subserved respectively by the Aδ and C fibers mDCN-T13, were determined by systematically applying across the skin forceps pinches (for mechano-nociception) and brief applications of a 60° C. heat probe (for heat-nociception); the presence of nociceptive endings is indicated during these procedures when the stimuli elicit the “CTM reflex” response, a contraction of the underlying cutaneus trunci muscle, which causes a characteristic and easily recognized skin twitch (Theriault and Diamond, 1988). […]"}, "unoperated animals [4]": {"system": "unoperated animals", "assay": "Detection of hyperalgesia", "assay_type": "in vivo, rat", "experimental": "Detection of hyperalgesia: Nociceptive responses were studied in lightly restrained animals as described in […] et al. (1999), using the latency of foot withdrawal from a 49° C. footbath, the temperature of the footbath at which withdrawal was initiated, and the heat thresholds for evoking the “CTM” reflex from back skin (see above). Hyperalgesia is defined here as a lowering of the threshold of a nociceptive stimulus required to produce a reflex response, and/or a reduction in the latency of that response. Administration of AIT-082: AIT-082 was obtained from NeoTherapeutics Inc., Irvine, Calif., USA. A 50 mg/ml solution in sterile 0.9% NaCl was made up freshly every three days. The standard administration protocol was a daily i.p. injection of 50 mg/kg AIT-082."}, "[5]": {"system": "control and diabetic rats, sciatic nerve", "assay": "Sensory nerve conduction velocity (SNCV) in control and diabetic rats", "assay_type": "in vivo, rat", "experimental": "(§3) Induction of diabetes: Female, adult, Sprague-Dawley rats (250-275 g) were fasted overnight prior to the intraperitoneal injection of a freshly made solution of streptozotocin in 0.9% saline to deliver a dose of 50 mg/kg body weight. Food was restored and animals left for 3 days before determination of glucose levels in a blood sample obtained by tail prick. Animals with blood glucose levels >15 mmol/l were considered diabetic and used in the study. Treatment with the AIT-082 began on the day that hyperglycemia was confirmed. […] If they presented as diabetic then they were added to the study, if not they were omitted.\nNerve Conduction Velocity (NCV): Rats were anesthetized with halothane (4% in O2 for induction, 2-3% for maintenance) and the sciatic nerve exposed via an incision in the flank followed by separation of underlying musculature by blunt dissection. A thermistor probe was placed adjacent to the nerve and the wound closed with a skin clamp and a second, rectal, probe was positioned. Nerve and rectal temperature was maintained at 37° C. by a heating lamp and thermal pad connected to a temperature regulator and the thermistor probes. […] The distance between the two sites of stimulation was measured using surface calipers and NCV calculated as […]. NCV measurements were made in triplicate and the median used to represent the NCV. The thermistor probes were removed, the skin incision closed with wound clips and coated with Betadine and the animal withdrawn from halothane and monitored until it recovers consciousness. Rats were then returned to their cages with free access to food and water."}, "[6]": {"system": "control and diabetic rats", "assay": "Thermal response latency in control and diabetic rats", "assay_type": "in vivo, rat", "conditions": "for thermal hyperalgesia (week 4) and hypoalgesia (week 8): diabetic rats", "experimental": "as §3\nThermal response latency: Rats were placed in an observation chamber on the surface (floor temperature 30° C.) of a modified Hargreaves Apparatus (UARD, San Diego Calif.) and allowed to acclimate for 5 minutes. For measurement of thermal response latency, a heat source (delivering 4.5 amps to give a paw withdrawal latency of approximately 10 seconds in control rats) was maneuvered underneath the hind paw. The heat source was turned on manually and a stop clock activated until it shut off automatically when the paw was moved (24 sec cut off time). The procedure was repeated 4 times on the same paw at 5 minute intervals and the median of values 2-4 used to represent the thermal response latency."}, "[7]": {"system": "control and diabetic rats", "assay": "Formalin test in control and diabetic rats", "assay_type": "in vivo, rat", "experimental": "as §3\nFormalin test: Rats were restrained manually and formalin (50 μl of 0.2% solution) injected sub-dermally into the hindpaw dorsum. Rats were then placed in an observation chamber and flinching behaviors counted in 1 minute blocks every 5 minutes for 1 hour."}, "[8]": {"system": "unoperated rats, mDCN-T13 heat, pinch and touch fields", "conditions": "systemically injected NGF; Diamond et al., 1992; Pertens et al., 1999; cited from earlier work"}, "unoperated animals [9]": {"system": "unoperated animals", "conditions": "rat, in vivo; cited from earlier work"}, "[10]": {"conditions": "unoperated rats, 50 mg/kg daily for 20 days, versus saline"}}, "data": [{"compound": "O=C(CCn1cnc2c(=O)[nH]cnc21)Nc1ccc(C(=O)O)cc1", "note": "[AIT-082, N-4-carboxyphenyl-3-(6-oxohydropurin-9-yl) propanamide]", "values": [{"measurement": "limited dose-response study for inducing nociceptive sprouting", "setting": "[1]; daily i.p. injection of 50 mg/kg, not illustrated", "value": "well above threshold for inducing nociceptive sprouting, but below saturating levels"}, {"measurement": "nociceptive fields, pinch and heat (area of innervation)", "setting": "[1]; [10]", "value": "expanded significantly"}, {"measurement": "touch fields (NGF-insensitive Aβ fibers)", "setting": "[1]; [10]", "value": "unaffected"}, {"measurement": "amount by which field expansions in the AIT-082 sprouting group exceeded controls", "setting": "[2]; after 20 days of treatment, comparison from raw data of FIGS. 1 and 2", "value": "approximately equal to the expansion in field areas induced in unoperated animals"}, {"measurement": "expansion of nociceptive fields into adjacent denervated skin relative to control group", "setting": "[2]; daily AIT-082 after field isolation, mapping every 3 or 4 days", "value": "increased expansion of the nociceptive fields"}, {"measurement": "time at which increased field expansion became apparent", "setting": "[2]; daily AIT-082 versus saline", "value": "about 13 days post-isolation"}, {"measurement": "sprouting under supra-threshold (\"high\") anti-NGF treatment", "setting": "[3]; daily AIT-082 plus about 5-fold anti-NGF dose, fields after 22 days", "value": "sprouting continued to be absent"}, {"measurement": "sprouting under threshold (\"low\") anti-NGF treatment", "setting": "[3]; daily AIT-082 plus daily anti-NGF, pinch and heat fields after 22 days", "value": "totally rescued the sprouting"}, {"measurement": "hyperalgesia, threshold temperature for foot withdrawal from a hot probe", "setting": "unoperated animals [4]; FIG. 4(a)", "value": "does not cause hyperalgesia"}, {"measurement": "hyperalgesia, threshold temperature for evoking the CTM reflex in dorsal skin", "setting": "unoperated animals [4]; FIG. 4(b)", "value": "does not cause hyperalgesia"}, {"measurement": "hyperalgesia, latency of foot withdrawal from a 49° C. hot bath", "setting": "unoperated animals [4]; FIG. 4(c)", "value": "does not cause hyperalgesia"}, {"measurement": "hyperalgesia (a number of recognized tests)", "setting": "unoperated animals [4]; standard AIT-082 administration, at any time during or following treatment", "value": "failed to provide any evidence for the occurrence of this phenomenon"}, {"measurement": "SNCV", "setting": "[5]; control rats", "value": "no effect"}, {"measurement": "SNCV deficit", "setting": "[5]; diabetic rats, week 4", "value": "no effect"}, {"measurement": "SNCV", "setting": "[5]; diabetic rats, week 8", "value": "dose-dependent improvement"}, {"measurement": "thermal response latency", "setting": "[6]; control rats", "value": "without effect"}, {"measurement": "thermal hyperalgesia (week 4) and hypoalgesia (week 8)", "setting": "[6]", "value": "dose-dependently prevented both hyperalgesia and hypoalgesia"}, {"measurement": "thermal hyperalgesia (week 4) and hypoalgesia (week 8)", "setting": "[6]; high dose 100 mg/kg", "value": "completely prevented both hyperalgesia at week 4 and hypoalgesia at week 8"}, {"measurement": "formalin-evoked flinching", "setting": "[7]; control and diabetic rats", "value": "dose-dependently reduced"}, {"measurement": "formalin-evoked hyperalgesia by phase", "setting": "[7]; diabetic rats", "value": "suppression of hyperalgesia was notable in phases 1, Q, and 2a"}]}, {"compound": "NGF: nerve growth factor, exogenous, systemically injected", "values": [{"measurement": "sprouting in normal skin", "setting": "[8]", "value": "induces sprouting in normal skin"}, {"measurement": "hyperalgesia", "setting": "unoperated animals [9]", "value": "causes hyperalgesia"}]}]}
